Assay results: US20090069370A1, “AZACYCLYLISOQUINOLINONE AND ISOINDOLINONE DERIVATIVES AS HISTAMINE-3 ANTAGONISTS” (Wyeth, priority 2007, published 2009)
Where a name gives a salt, the structure may show the parent alone.

| melting point | SMILES |
| --- | --- |
| 279 to 281 °C | O=C(c1ccc(-c2ccc3c(c2)CCN([C@@H]2CCN(C4CCCCC4)C2)C3=O)cc1)N1CCCC1 (as salt: hydrochloride) [Example 57, 2-[(3R)-1-cyclohexylpyrrolidin-3-yl]-6-[4-(pyrrolidin-1-ylcarbonyl)phenyl]-3,4-dihydroisoquinolin-1(2H)-one] |
| > 300 °C | CCN1CCC(N2Cc3cc(-c4ccc(C#N)cc4)ccc3C2=O)CC1 (as salt: hydrochloride) [Example 24, 4-[2-(1-Ethylpiperidin-4-yl)-1-oxo-2,3-dihydro-1H-isoindol-5-yl]benzonitrile] |
| 249 to 250 °C | CC(C)N1CC[C@@H](N2CCc3cc(-c4ccc(C(=O)N5CCCC5)cc4F)ccc3C2=O)C1 (as salt: hydrochloride) [Example 84, 6-[2-fluoro-4-(pyrrolidin-1-ylcarbonyl)phenyl]-2-[(3R)-1-isopropylpyrrolidin-3-yl]-3,4-dihydroisoquinolin-1(2H)-one] |
| 284 to 286 °C | O=C(c1ccc(COc2ccc3c(c2)CCN(C2CCN(C4CCC4)CC2)C3=O)cc1)N1CCCC1 (as salt: hydrochloride) [Example 20, 2-(1-Cyclobutylpiperidin-4-yl)-6-{[4-(pyrrolidin-1-ylcarbonyl)benzyl]oxy}-3,4-dihydroisoquinolin-1(2H)-one] |
| 309 to 311 °C | CC(C)NC(=O)c1ccc(Oc2ccc3c(c2)CCN(C2CCN(C4CCC4)CC2)C3=O)cc1 (as salt: hydrochloride) [Example 6, 4-{[2-(1-Cyclobutylpiperidin-4-yl)-1-oxo-1,2,3,4-tetrahydroisoquinolin-6-yl]oxy}-N-isopropylbenzamide] |
| 105 to 106 °C | N#Cc1ccc(-c2ccc3c(c2)CN(C2CCNCC2)C3=O)cc1 (as salt: hydrochloride) [Example 22, 4-(1-oxo-2-piperidin-4-yl-2,3-dihydro-1H-isoindol-5-yl)benzonitrile hydrochloride] |
| > 300 °C | O=C(c1ccc(-c2ccc3c(c2)CCN(C2CCN(C4CCC4)CC2)C3=O)cc1)N1CCCC1 (as salt: hydrochloride) [Example 65, 2-(1-cyclobutylpiperidin-4-yl)-6-[4-(pyrrolidin-1-ylcarbonyl)phenyl]-3,4-dihydroisoquinolin-1(2H)-one] |
| > 274 °C | O=C1NCCc2cc(-c3ccc4c(c3)CCN([C@@H]3CCN(C5CCC5)C3)C4=O)ccc21 (as salt: hydrochloride) [Example 89, (R)-2-(1-cyclobutylpyrrolidin-3-yl)-3,3′,4,4′-tetrahydro-6,6′-biisoquinoline-1,1′(2H,2′H)-dione hydrochloride] |
| 274 to 275 °C | CC(C)N1CCC[C@@H](N2CCc3cc(-c4ccc(C(=O)N5CCCC5)cc4)ccc3C2=O)C1 (as salt: hydrochloride) [Example 72, 2-[(3R)-1-isopropylpiperidin-3-yl]-6-[4-(pyrrolidin-1-ylcarbonyl)phenyl]-3,4-dihydroisoquinolin-1(2H)-one] |
| 254 to 256 °C | O=C(c1ccc(-c2ccc3c(c2)CCN([C@@H]2CCN(Cc4ccoc4)C2)C3=O)cc1)N1CCCC1 (as salt: hydrochloride) [Example 60, 2-[(3R)-1-(furan-3-ylmethyl)pyrrolidin-3-yl]-6-[4-(pyrrolidin-1-ylcarbonyl)phenyl]-3,4-dihydroisoquinolin-1(2H)-one] |
| 124 to 125 °C | O=C(NC1CCCC1)c1ccc2c(c1)CCN([C@@H]1CCN(C3CCC3)C1)C2=O (as salt: hydrochloride) [Example 88, 2-[(3R)-1-cyclobutylpyrrolidin-3-yl]-N-cyclopentyl-1-oxo-1,2,3,4-tetrahydroisoquinoline-6-carboxamide hydrochloride] |
| 203 to 205 °C | O=C(c1cccc(-c2ccc3c(c2)CCN([C@@H]2CCN(C4CCC4)C2)C3=O)c1)N1CCCC1 (as salt: hydrochloride) [Example 52, 2-[(3R)-1-cyclobutylpyrrolidin-3-yl]-6-[3-(pyrrolidin-1-ylcarbonyl)phenyl]-3,4-dihydroisoquinolin-1(2H)-one] |
| 320 °C (dec.) | N#Cc1ccc(-c2ccc3c(c2)CN(C2CCN(C4CCC4)CC2)C3=O)cc1 (as salt: hydrochloride) [Example 28, 4-[2-(1-Cyclobutylpiperidin-4-yl)-1-oxo-2,3-dihydro-1H-isoindol-5-yl]benzonitrile] |
| > 300 °C | CC(C)N1CCC(N2CCc3cc(-c4ccc(C(=O)N5CCCC5)cc4)ccc3C2=O)CC1 (as salt: hydrochloride) [Example 67, 2-(1-isopropylpiperidin-4-yl)-6-[4-(pyrrolidin-1-ylcarbonyl)phenyl]-3,4-dihydroisoquinolin-1(2H)-one] |
| 178 to 180 °C | CCNC(=O)c1ccc(Oc2ccc3c(c2)CCN([C@@H]2CCN(C4CCCC4)C2)C3=O)cc1 (as salt: hydrochloride) [Example 38, 4-({2-[(3R)-1-cyclopentylpyrrolidin-3-yl]-1-oxo-1,2,3,4-tetrahydroisoquinolin-6-yl}oxy)-N-ethylbenzamide] |
| 317 to 318 °C | CCNC(=O)c1ccc(Oc2ccc3c(c2)CCN(C2CCN(C4CCC4)CC2)C3=O)cc1 (as salt: hydrochloride) [Example 5, 4-{[2-(1-Cyclobutylpiperidin-4-yl)-1-oxo-1,2,3,4-tetrahydroisoquinolin-6-yl]oxy}-N-ethylbenzamide] |
| 265 to 266 °C | CNC(=O)c1ccc(-c2ccc3c(c2)CCN([C@H]2CCN(C4CCC4)C2)C3=O)cc1.Cl [Example 90, (R)-4-(2-(1-cyclobutylpyrrolidin-3-yl)-1-oxo-1,2,3,4-tetrahydro-isoquinolin-6-yl)-N-methylbenzamide hydrochloride] |
| 220 to 221 °C | CNC(=O)c1ccc(-c2ccc3c(c2)CCN([C@@H]2CCN(C4CCC4)C2)C3=O)c(F)c1 (as salt: hydrochloride) [Example 75, 4-{2-[(3R)-1-cyclobutylpyrrolidin-3-yl]-1-oxo-1,2,3,4-tetrahydroisoquinolin-6-yl}-3-fluoro-N-methylbenzamide] |
| > 310 °C | CNC(=O)c1ccc(Oc2ccc3c(c2)CCN(C2CCN(C4CCC4)CC2)C3=O)cc1 (as salt: hydrochloride) [Example 4, 4-{[2-(1-Cyclobutylpiperidin-4-yl)-1-oxo-1,2,3,4-tetrahydroisoquinolin-6-yl]oxy}-N-methylbenzamide] |
| 286 to 288 °C | O=C(NC1CCC1)c1ccc(COc2ccc3c(c2)CCN(C2CCN(C4CCC4)CC2)C3=O)cc1 (as salt: hydrochloride) [Example 19, N-Cyclobutyl-4-({[2-(1-cyclobutylpiperidin-4-yl)-1-oxo-1,2,3,4-tetrahydroisoquinolin-6-yl]oxy}methyl)benzamide] |
| 260.5 to 262 °C | O=C(c1ccc(-c2ccc3c(c2)CCN([C@@H]2CCCN(C4CCC4)C2)C3=O)cc1)N1CCCC1 (as salt: hydrochloride) [Example 70, 2-[(3R)-1-cyclobutylpiperidin-3-yl]-6-[4-(pyrrolidin-1-ylcarbonyl)phenyl]-3,4-dihydroisoquinolin-1(2H)-one] |
| > 273 °C | O=C(c1ccc(-c2ccc3c(c2)CCN(C2CCNCC2)C3=O)cc1)N1CCCC1 [Example 64, 2-(piperidin-4-yl)-6-(4-(pyrrolidine-1-carbonyl)phenyl)-3,4-dihydroisoquinolin-1(2H)-one] |
